In one test the target is T1, hCRTH2 (Homo sapiens, UniProt Q9Y5Y4).
T1 construct: expressed in transfected cells; host or cells: HEK (human embryonic kidney) cells expressing hCRTH2
T1 sequence (Q9Y5Y4 1-395): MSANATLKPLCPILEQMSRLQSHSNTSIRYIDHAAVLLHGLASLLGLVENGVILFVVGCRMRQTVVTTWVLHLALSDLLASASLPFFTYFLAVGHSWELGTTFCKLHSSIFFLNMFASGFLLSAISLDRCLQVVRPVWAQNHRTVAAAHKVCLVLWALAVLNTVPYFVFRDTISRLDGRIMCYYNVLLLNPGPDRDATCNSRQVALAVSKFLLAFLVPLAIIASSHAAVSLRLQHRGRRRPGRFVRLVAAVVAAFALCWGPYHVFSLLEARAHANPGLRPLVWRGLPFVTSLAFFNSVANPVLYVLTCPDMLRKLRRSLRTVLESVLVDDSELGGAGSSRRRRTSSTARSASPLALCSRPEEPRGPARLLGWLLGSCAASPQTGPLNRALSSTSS
Briefly: Radioligand Binding Assay B (scintillation proximity assay, [3H]-PGD2, HEK-hCRTH2 membranes). The following applies: Radioligand Binding Assay B (SPA), values in text. The procedure:
Radioligand binding also was performed using scintillation proximity assay (SPA) technology in a similar way as described above in Radioligand Binding Assay A with minor modification. Assays were done at room temperature in 10 mM HEPES pH 7.4, 1 mM EDTA containing 2 mM MnCl2 and 16 nM [^3H]-PGD2 (PerkinElmer, Waltham, Mass.) (164 Ci mmol^−1), in a final volume of 0.05 mL. Competing ligands were diluted in dimethylsulfoxide (Me2SO) and added using very low volumes (50 nL). The reaction was initiated by the addition of a mixture of 3.52 μg of membrane protein prepared from a human embryonic kidney (HEK)-hCRTH2 cell line adhered to 140 ug of wheatgerm agglutinin SPA beads (PerkinElmer). Total and non-specific binding were determined in the absence and the presence of 10 μM of a CRTH2 antagonist, respectively. The reaction was routinely conducted for 60 min at room temperature followed by centrifugation for 5 minutes at 1000 RPM. The radioactivity was measured with a TopCountNXT (PerkinElmer). Results determined using the SPA-based assay were similar to those from the filtration binding assay.
`Cc1cccc(N2CCN(C(=O)c3ccc4nc(-c5ccc(Cl)cc5)c(CCCCC(=O)O)cc4c3)CC2)c1` [Compound 5BR, 5-(2-(4-chlorophenyl)-6-(4-(m-tolyl)piperazine-1-carbonyl)quinolin-3-yl)pentanoic acid]: the affinity, expressed as Ki, was 0.0074 µM.

The test is the same for the next values; noted with them: Table B, Radioligand Binding Assay B (SPA), rated A-D.
The compound `O=C(O)CCCCc1cc2cc(C(=O)N3CCN(c4ccccc4Cl)CC3)ccc2nc1-c1ccc(Cl)cc1` [Compound 5BP, 5-(2-(4-chlorophenyl)-6-(4-(2-chlorophenyl)piperazine-1-carbonyl)quinolin-3-yl)pentanoic acid] gave an inhibition constant Ki of 0.0201 to 0.2 µM.

On to `Cc1ccccc1N1CCN(C(=O)c2ccc3nc(-c4ccc(Cl)cc4)c(CCCCC(=O)O)cc3c2)CC1` [Compound 5BQ, 5-(2-(4-chlorophenyl)-6-(4-(o-tolyl)piperazine-1-carbonyl)quinolin-3-yl)pentanoic acid], for which the inhibitory constant (Ki) fell in the range of 0.0021 to 0.02 µM.

Consider `Cc1cccc(N2CCN(C(=O)c3ccc4nc(-c5ccc(Cl)cc5)c(CCCCC(=O)O)cc4c3)CC2)c1` [Compound 5BR, 5-(2-(4-chlorophenyl)-6-(4-(m-tolyl)piperazine-1-carbonyl)quinolin-3-yl)pentanoic acid], for which the Ki is 0.0021 to 0.02 µM.

In turn, `COc1ccc(N2CCN(C(=O)c3ccc4nc(-c5ccc(Cl)cc5)c(CCCCC(=O)O)cc4c3)CC2)cc1` [Compound 5BS, 5-(2-(4-chlorophenyl)-6-(4-(4-methoxyphenyl)piperazine-1-carbonyl)quinolin-3-yl)pentanoic acid] yielded a Ki of 0.0021 to 0.02 µM.

With `Cc1ccc(N2CCN(C(=O)c3ccc4nc(-c5ccc(Cl)cc5)c(CCCCC(=O)O)cc4c3)CC2)cc1` [Compound 5BT, 5-(2-(4-chlorophenyl)-6-(4-(p-tolyl)piperazine-1-carbonyl)quinolin-3-yl)pentanoic acid], the Ki fell in the range of 0.0021 to 0.02 µM.

On to `O=C(O)CCCCc1cc2cc(C(=O)N3CCN(c4ccc(F)cc4)CC3)ccc2nc1-c1ccc(Cl)cc1` [Compound 5BU, 5-(2-(4-chlorophenyl)-6-(4-(4-fluorophenyl)piperazine-1-carbonyl)quinolin-3-yl)pentanoic acid], for which the inhibitory constant (Ki) lay within 0.0021 to 0.02 µM.

As to `CC1(C)CCC(NC(=O)c2ccc3nc(-c4ccc(Cl)cc4)c(CCCCC(=O)O)cc3c2)c2ccccc21` (stereo not drawn) [Compound 5Bi, 5-(2-(4-chlorophenyl)-6-((4,4-dimethyl-1,2,3,4-tetrahydronaphthalen-1-yl)carbamoyl)quinolin-3-yl)pentanoic acid], the inhibition constant Ki was 0.0021 to 0.02 µM.

Compound `O=C(O)CCCCc1cc2cc(C(=O)N3CCC4(CC3)OCc3ccccc34)ccc2nc1-c1ccc(Cl)cc1` [Compound 5Bo, 5-(2-(4-chlorophenyl)-6-(3H-spiro[isobenzofuran-1,4′-piperidin]-1′-ylcarbonyl)quinolin-3-yl)pentanoic acid] yielded a Ki of 0.0021 to 0.02 µM.

The values above are taken from patent US9290453B2 (Merck Sharp & Dohme Corp., priority 2010, dated 2016).
